Data reported in ChEMBL document CHEMBL1154899, “Synthesis and biological evaluation of caffeic acid 3,4-dihydroxyphenethyl ester” (J Nat Prod, 2010).

Assays:
Format in all cases: functional
[1] = tested on: EKVX; assay: Antiproliferative activity against human EKVX cells assessed as cell growth at 0.5 uM by SRB assay; settings: read-out: Activity
[2] = tested on: HT-29; assay: Antiproliferative activity against human HT-29 cells by SRB assay
[3] = tested on: NCI-H226; assay: Antiproliferative activity against human NCI-H226 cells assessed as cell growth at 500 uM by SRB assay; settings: read-out: Activity
[4] = tested on: CCRF-CEM; assay: Antiproliferative activity against human CCRF-CEM cells assessed as cell growth at 500 uM by SRB assay; settings: read-out: Activity
[5] = tested on: 786-0; assay: Antiproliferative activity against human 786-0 cells by SRB assay
[6] = tested on: CCRF-CEM; assay: Antiproliferative activity against human CCRF-CEM cells assessed as cell growth at 0.5 uM by SRB assay; settings: read-out: Activity
[7] = tested on: NCI-H460; assay: Antiproliferative activity against human NCI-H460 cells assessed as cell growth at 0.5 uM by SRB assay; settings: read-out: Activity
[8] = Antiproliferative activity against human Hs 578T cells assessed as cell growth at 50 uM by SRB assay; settings: read-out: Activity
[9] = tested on: NCI-H522; assay: Antiproliferative activity against human NCI-H522 cells assessed as cell growth at 50 uM by SRB assay; settings: read-out: Activity
[10] = tested on: COLO 205; assay: Antiproliferative activity against human COLO205 cells assessed as cell growth at 500 uM by SRB assay; settings: read-out: Activity
[11] = tested on: K562; assay: Antiproliferative activity against human K562 cells assessed as cell growth at […] by SRB assay; settings: read-out: Activity
[12] = tested on: UACC-257; assay: Antiproliferative activity against human UACC257 cells assessed as cell growth at 50 uM by SRB assay; settings: read-out: Activity
[13] = tested on: SK-MEL-5; assay: Antiproliferative activity against human SK-MEL-5 cells assessed as cell growth at 500 uM by SRB assay; settings: read-out: Activity
[14] = tested on: KM12; assay: Antiproliferative activity against human KM12 cells assessed as cell growth at 500 uM by SRB assay; settings: read-out: Activity
[15] = tested on: MCF7; assay: Antiproliferative activity against human MCF7 cells by SRB assay
[16] = tested on: OVCAR-3; assay: Antiproliferative activity against human OVCAR-3 cells assessed as cell growth at 5 uM by SRB assay; settings: read-out: Activity
[17] = tested on: UACC-257; assay: Antiproliferative activity against human UACC257 cells by SRB assay
[18] = tested on: HCT-15; assay: Antiproliferative activity against human HCT15 cells by SRB assay
[19] = tested on: TK-10; assay: Antiproliferative activity against human TK10 cells assessed as cell growth at 5 mM by SRB assay; settings: read-out: Activity
[20] = read-out: LC50 (the source's name)
[21] = read-out: pLC50 (the source's name) (converted)

For `O=C(/C=C/c1ccc(O)c(O)c1)OCCc1ccc(O)c(O)c1`, the growth at 0.5 µM [1] was 88%, the GI50 ([2]; read-out: GI50) was 28.5 µM and the CC50 [2, 20] was > 50 µM. For the same compound, the TGI ([2]; read-out: TGI) was > 50 µM, the GI50 ([2]; read-out: pGI50 (converted)) was 28.2 µM and the CC50 [2, 21] was > 50.1 µM. The TGI ([2]; read-out: pTGI) was > 50.1 µM, the growth at 500 µM [3] was 79% and the growth at 500 µM [4] was 1%. For the same compound, the GI50 ([5]; read-out: GI50) was 13.5 µM, the CC50 [5, 20] was > 50 µM and the TGI ([5]; read-out: TGI) was > 50 µM. For the same compound, the GI50 ([5]; read-out: pGI50 (converted)) was 13.5 µM, the CC50 [5, 21] was > 50.1 µM and the TGI ([5]; read-out: pTGI) was > 50.1 µM. The growth at 0.5 µM [6] was 95%, the growth at 0.5 µM [7] was 95% and the growth at 50 µM [8] was 80%. It also gave a growth at 50 µM [9] of 77%, a growth at 500 µM [10] of 84% and a growth [11] of -8%. It also gave a growth at 50 µM [12] of 92%, a growth at 500 µM [13] of 64% and a growth at 500 µM [14] of 59%. For the same compound, the GI50 ([15]; read-out: GI50) was 3.86 µM, the CC50 [15, 20] was > 50 µM and the TGI ([15]; read-out: TGI) was > 50 µM. For the same compound, the GI50 ([15]; read-out: pGI50 (converted)) was 3.89 µM, the CC50 [15, 21] was > 50.1 µM and the TGI ([15]; read-out: pTGI) was > 50.1 µM. The growth at 5 µM [16] was 99%, the GI50 ([17]; read-out: GI50) was 15.4 µM and the CC50 [17, 20] was > 50 µM. For the same compound, the TGI ([17]; read-out: TGI) was > 50 µM, the GI50 ([17]; read-out: pGI50 (converted)) was 15.5 µM and the CC50 [17, 21] was > 50.1 µM. For the same compound, the TGI ([17]; read-out: pTGI) was > 50.1 µM, the GI50 ([18]; read-out: GI50) was 2.25 µM and the CC50 [18, 20] was > 50 µM. The TGI ([18]; read-out: TGI) was > 50 µM, the GI50 ([18]; read-out: pGI50 (converted)) was 1.41 µM and the CC50 [18, 21] was > 50.1 µM. The TGI ([18]; read-out: pTGI) was > 50.1 µM and the growth at 5000 µM [19] was 40%.
